Four molecules from patent US6812236B2, “Compounds useful in therapy” (Pfizer Inc., priority 1999, dated 2004) can be followed below.

Some results are limits rather than exact numbers.

The assay deals with T1, mu opioid receptor (Canis lupus familiaris, UniProt A0A0F6TMT6).
T1 construct: Laboratory bred beagles were used as a source of dog brain tissue; from tissue; host or cells: beagle dog brain without cerebellum, washed membrane pellet
T1 sequence (A0A0F6TMT6 1-401): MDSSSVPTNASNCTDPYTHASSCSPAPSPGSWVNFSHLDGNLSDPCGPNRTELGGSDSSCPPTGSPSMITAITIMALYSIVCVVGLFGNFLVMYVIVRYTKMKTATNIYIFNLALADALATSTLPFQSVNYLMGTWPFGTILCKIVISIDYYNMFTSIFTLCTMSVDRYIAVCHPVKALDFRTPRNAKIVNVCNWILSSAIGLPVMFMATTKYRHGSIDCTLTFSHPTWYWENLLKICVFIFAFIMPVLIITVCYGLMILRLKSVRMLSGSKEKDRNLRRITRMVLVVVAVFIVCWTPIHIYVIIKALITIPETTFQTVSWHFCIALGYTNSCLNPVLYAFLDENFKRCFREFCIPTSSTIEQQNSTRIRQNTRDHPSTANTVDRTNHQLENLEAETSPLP
As to the kind of experiment: mu opioid receptor binding assay in dog brain membranes (3H-DAMGO displacement). Particulars: dog brain tissue, read-out: Ki values for the μ receptor. As for the experimental part:
The assays were conducted by the following procedure.
Laboratory bred beagles were used as a source of dog brain tissue. Animals were euthanised, their brains removed and the cerebellum discarded. The remaining brain tissue was sectioned into small pieces approximately 3 g in weight and homogenised in 50 mM Tris pH 7.4 buffer at 4° C. using a Kinematica Polytron™ tissue homogeniser. The resulting homogenate was centrifuged at 48,400× g for 10 minutes and the supernatant discarded. The pellet was resuspended in Tris buffer and incubated at 37° C. for 10 minutes. Centrifugation, resuspension and incubation steps were repeated twice more, and the final pellet was resuspended in Tris buffer and stored at −80° C. Membrane material prepared in this manner could be stored for up to four weeks prior to use.
For mu assays, increasing concentrations of experimental compound, (5×10^−12 to 10^−5 M), Tris buffer and ^3H ligand, ([D-Ala^2,N-Me-Phe^4,Gly-ol^5]-Enkephalin, DAMGO), were combined in polystyrene tubes. The reaction was initiated by the addition of tissue, and the mixture was incubated at room temperature for 90 minutes. The reaction was terminated by rapid filtration using a Brandel Cell Harvester™ through Betaplate™ GF/A glass fibre filters pre-soaked in 50 mM Tris pH 7.4, 0.1% polyethylenimine buffer. The filters were then washed three times with 0.5 mL ice-cold Tris pH 7.4 buffer. Washed filters were placed in bags and Starscint™ scintillant added. Bags containing the filters and scintillant were heat sealed and counted by a Betaplate™ 1204 beta counter.
Duplicate samples were run for each experimental compound and the data generated was analysed using IC50 analysis software in Graphpad Prism. Ki values were calculated using Graphpad Prism according to the following formula: […]
where IC50 is the concentration at which 50% of the ^3H ligand is displaced by the test compound and KD is the dissociation constant for the ^3H ligand at the receptor site.
Consider `CCNC(=O)c1cccc(C2(C)CCN(CCCCCC#N)CC2C)c1` (stereo not shown) [Example 20, 1-(5-Cyanopentyl)-3,4-dimethyl-4-(3-(N-ethyl)-amidophenyl)piperidine], for which the Ki (usually the equilibrium dissociation constant of an inhibitor or competing ligand from its target) is no more than 4 µM.
In the case of `CCNC(=O)c1cccc(C2(C)CCN(CCCCC(C)C)CC2C)c1` (stereo not shown) [Example 18, 1-(5-Methylhexyl)-3,4-dimethyl-4-(3-(N-ethyl)-amidophenyl)piperidine], the Ki was no more than 4 µM.
`CCCCCCN1CCC(C)(c2cccc(C(=O)NC(C)C)c2)C(C)C1` (stereo not shown) [Example 4, 1-Hexyl-3,4-dimethyl-4-(3-(N-isopropyl)amidophenyl)-piperidine]: the Ki is no more than 4 µM.
For `CCCCCCN1CCC(C)(c2cccc(C(=O)NCC)c2)C(C)C1` (stereo not shown) [Example 8, 1-Hexyl-3,4-dimethyl-4-(3-(N-ethyl)amidophenyl)-piperidine], the Ki is no more than 4 µM.
